# Assay: In vitro binding affinity towards FKBP12 domain of peptidyl-propyl isomerase (PPIase)
row,Compound,IC50 [nM]
1,CCC(C)(C)C(=O)C(=O)N1C2CCC(C2)[C@H]1C(=O)SCCCc1ccccc1 (stereo partly specified),2300
2,CCC(C)(C)C(=O)C(=O)N1C2CCC(C2)[C@@H]1C(=O)OCCCc1ccccc1 (stereo partly specified),> 25000
3,CCC(C)(C)C(=O)C(=O)N1C2CCC(C2)[C@@H]1C(=O)SCCC(c1ccccc1)c1ccccc1 (stereo partly specified),> 25000
4,CCC(C)(C)C(=O)C(=O)N1C2CCC(C2)[C@@H]1C(=O)SCCCc1ccccc1 (stereo partly specified),22000
5,CCC(C)(C)C(=O)C(=O)N1C2CCC(C2)[C@@H]1C(=O)OCCCc1ccncc1 (stereo partly specified),> 25000
6,CCC(C)(C)C(=O)C(=O)N1C2CCC(C2)[C@H]1C(=O)OCCCc1ccncc1 (stereo partly specified),15000
7,CCC(C)(C)C(=O)C(=O)N1C2CCC(C2)[C@@H]1C(=O)OCCCCc1ccccc1 (stereo partly specified),5100

# Now those with a lower IC50, led by results:
row,IC50 [nM],Compound
1,1300,O=C(OCCCc1ccccc1)[C@@H]1C2CCC(C2)N1S(=O)(=O)Cc1ccccc1 (stereo partly specified)
2,980,CCC(C)(C)C(=O)C(=O)N1C2CCC(C2)[C@H]1C(=O)SCCC(c1ccccc1)c1ccccc1 (stereo partly specified)
3,910,O=C(SCCCc1ccccc1)[C@@H]1C2CCC(C2)N1S(=O)(=O)c1ccccc1 (stereo partly specified)
4,720,O=C(SCCCc1ccccc1)[C@@H]1C2CCC(C2)N1S(=O)(=O)Cc1ccccc1 (stereo partly specified)
5,710,CCC(C)(C)C(=O)C(=O)N1C2CCC(C2)[C@H]1C(=O)OCCCCc1ccccc1 (stereo partly specified)
6,670,CCC(C)(C)C(=O)C(=O)N1C2CCC(C2)[C@H]1C(=O)OCCCc1ccccc1 (stereo partly specified)
7,650,O=C(OCCCc1ccccc1)[C@@H]1C2CCC(C2)N1S(=O)(=O)c1ccccc1 (stereo partly specified)
8,9.2,O=C1CC2CCCC(Sc3ccccc3)(C1)C2 (stereo unspecified)
9,0.28,COc1cc(C(=O)C(=O)N2C3CCCC2C(=O)OCCCCOC3=O)cc(OC)c1OC
